Source: PubChem BioAssay (NCI)
Several values for one entry are separate records, joined by “and”; a condition that tells them apart may be missing. Equal values may be shown once.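 Each compound was tested at five concentrations against cells in 96-well plates for 48 hours. GI50 = concentration required for 50% inhibition of growth. Definition used: TGI = concentration required for complete inhibition of growth.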

Key:
Assay in all cases: NCI-60 cell line screen, 48 h
HL-60(TB) leukemia = test system: HL-60(TB) leukemia
HT29 colon = test system: HT29 colon
786-0 renal = test system: 786-0 renal
SR leukemia = test system: SR leukemia
UACC-257 melanoma = test system: UACC-257 melanoma
KM12 colon = test system: KM12 colon
SK-MEL-2 melanoma = test system: SK-MEL-2 melanoma
UACC-62 melanoma = test system: UACC-62 melanoma
SNB-75 CNS = test system: SNB-75 CNS
DU-145 prostate = test system: DU-145 prostate

SMILES | TGI (HL-60(TB) leukemia) | TGI (HT29 colon) | TGI (786-0 renal) | TGI (SR leukemia) | TGI (UACC-257 melanoma) | TGI (KM12 colon) | TGI (SK-MEL-2 melanoma) | TGI (UACC-62 melanoma) | TGI (SNB-75 CNS) | GI50 (HL-60(TB) leukemia) [µM] | GI50 (HT29 colon) [µM] | GI50 (786-0 renal) [µM] | GI50 (SR leukemia) [µM] | GI50 (UACC-257 melanoma) | GI50 (KM12 colon) [µM] | GI50 (SK-MEL-2 melanoma) | GI50 (UACC-62 melanoma) [µM] | GI50 (DU-145 prostate) [µM] | TGI (DU-145 prostate) | GI50 (SNB-75 CNS) [µM]
CC1=C(C(=O)Nc2ccccc2C)C(c2ccccc2O)C(C(=O)Nc2ccccc2C)=C(C)N1 | 61.2 µM | 64.3 µM | 31.2 µM | 50.8 µM | 49.4 µM | 31.2 µM | 35.3 µM | 35.7 µM | 65.8 µM |  |  |  |  |  |  |  |  |  |  | 
C[C@H]1[C@H](C)CC[C@]2(C(=O)O)CCC3(COC(=O)/C=C/c4ccc(O)cc4)C(=CCC4[C@@]5(C)CC[C@H](O)C(C)(C)C5CC[C@]43C)[C@H]12 (some centres not stated) | 53.1 µM | 18.6 µM | 16 µM | 64.3 µM | 31.5 µM | 16.3 µM | 43.2 µM | 23 µM | 23.8 µM |  |  |  |  |  |  |  |  |  |  | 
Cc1cc(=O)n2c(cc3cccccc32)n1 | > 100 µM | > 100 µM | > 100 µM | > 100 µM | > 100 µM | > 100 µM | > 100 µM | > 100 µM | > 100 µM |  |  |  |  |  |  |  |  |  |  | 
CCOC1Oc2ccccc2C(=O)/C1=C\Nc1ccc(C(=O)O)c(O)c1 (configuration not stated) | > 100 µM | 72.7 µM | > 100 µM | > 100 µM | 44.6 µM | 65 µM | > 100 µM | 43.5 µM | 58.3 µM | 32.7 | 28.7 | 30.1 | 39.4 | 19.4 µM | 26.3 | 46.7 µM | 19.6 | 34.1 | > 100 µM | 20.3
O=C(C(=O)c1cccnc1)c1cccnc1 | > 100 µM | > 100 µM | > 100 µM | > 100 µM | > 100 µM | > 100 µM | > 100 µM | > 100 µM | > 100 µM | > 100 | > 100 | > 100 | > 100 | > 100 µM | > 100 | > 100 µM | > 100 | > 100 | > 100 µM | > 100
CCc1c2c(nc3ccc(OC(=O)OCc4ccc(B5OC(C)(C)C(C)(C)O5)cc4)cc13)-c1cc3c(c(=O)n1C2)COC(=O)[C@]3(O)CC | 22.3 µM | > 100 µM | 0.289 µM | > 100 µM | 3.22 µM | 16.1 µM | 8.57 µM | 0.104 µM | 0.184 µM | 0.0121 | 0.0436 | < 0.01 | < 0.01 | 0.116 µM | 0.073 | 0.326 µM | < 0.01 | < 0.01 | > 53.3 µM | < 0.0117
CN(CO)c1nc(N(C)CO)nc(N(C)CO)n1 | 75.1 µM and 16.5 µM | 71.2 µM and 144 µM | 56.9 µM and 105 µM | > 77.1 µM and 1080 µM | 40.7 µM and 44.4 µM | 47.7 µM and 31.8 µM | 32.1 µM and 11.2 µM | 33.8 µM and 25.4 µM | 53.3 µM and 32 µM | 26 | 26.3 | 29.6 | 28.4 | 20.6 µM and 21.8 µM |  | 15.5 µM and 5.47 µM | 17.2 | 29 | 64.8 µM and 76.5 µM | 16.4
O=C(CCN1CCCC1)Nc1ccc2c(Nc3ccc(Br)cc3)c3ccccc3nc2c1 |  |  | 3.02 µM | 2.58 µM | 3.7 µM | 3.29 µM | 3.76 µM | 3.12 µM | 2.68 µM |  |  | 1.5 | 0.288 | 1.89 µM | 1.57 | 1.98 µM | 1.64 | 0.798 | 2.07 µM | 1.37
O=C(CC1(O)C(=O)Nc2c(Cl)cc(Cl)cc21)c1ccc([N+](=O)[O-])cc1 (configuration not stated) | > 52.5 µM | > 100 µM | > 100 µM | > 80.6 µM | > 54.3 µM | > 100 µM | > 100 µM | > 53.6 µM | > 87.6 µM |  |  |  |  |  |  |  |  |  |  | 
CCCCCCCCCCCCSC1=CC(=O)C=CC1=O | 2.43 µM | > 50 µM | > 33.5 µM | 29.1 µM | 15.9 µM | 8.37 µM | 19.4 µM | > 36.9 µM | 6.38 µM | 0.353 | 27.1 | 9.94 | 3.58 | 4.01 µM | 1.92 | 7.5 µM | 7.59 | 15.1 | > 50 µM | 1.14
C=C(C)C1CC=C(C)C(O)([C@@]2(O)C[C@H](C(=C)C)CC=C2C)C1 (some centres not stated) | 47.2 µM | 37.7 µM | 31.3 µM | 58.1 µM | 42.8 µM | 43.4 µM | 35.9 µM | 55.9 µM | 54.2 µM |  |  |  |  |  |  |  |  |  |  | 
Nc1nc(N)c(CCCCc2ccccc2)c(/C=C/c2ccc([N+](=O)[O-])cc2)n1 | 3.14 µM | 16.2 µM | 7.34 µM | 4.85 µM | 22.2 µM | 10.8 µM | 10.8 µM | 7.46 µM | 9.87 µM |  |  |  |  |  |  |  |  |  |  | 
CC(C)c1ccc(C(O)(C(=O)O)c2ccc(C(C)C)cc2)cc1 | 99.4 µM | > 100 µM | > 100 µM | > 100 µM | > 100 µM | > 100 µM |  | > 100 µM | > 100 µM |  |  |  |  |  |  |  |  |  | > 100 µM | 
CC(=O)CCn1[nH]c(=O)c(Cl)c(Cl)c1=O | > 100 µM | > 100 µM | > 100 µM | > 100 µM | > 100 µM | > 100 µM | > 100 µM | > 100 µM | > 100 µM |  |  |  |  |  |  |  |  |  |  | 
CC1(C)C2=CCCC(=O)[C@@]2(C)CC[C@@H]1O | > 100 µM | > 100 µM | > 100 µM | > 100 µM | > 100 µM | > 100 µM | > 100 µM | > 100 µM | > 100 µM |  |  |  |  |  |  |  |  |  |  | 
CC1(C)C=C(N2CCN(C3=CC(C)(C)NC(C)(C)C3)CC2)CC(C)(C)N1 | > 100 µM | > 100 µM | > 100 µM | > 100 µM | > 100 µM | > 100 µM |  | > 100 µM | > 100 µM |  |  |  |  |  |  |  |  |  |  | 
Cc1nccc2c3ccc(OCc4cn(-c5ccc(Br)cc5)nn4)cc3n(CCCc3ccccc3)c12 | > 100 µM | > 100 µM | 3.13 µM |  | 4.4 µM | > 100 µM | > 100 µM | 7.08 µM | 3.98 µM | 6.53 | 2.9 | 1.49 |  | 2.06 µM | 2.73 | > 100 µM | 2.46 | 5.2 | > 100 µM | 1.54
